Data set [1] can be described thus: ZSF1 rat model of metabolic syndrome and diabetic nephropathy. It is filed as in vivo. As to conditions: male, rat, plasma, oral; obese ZSF1, enalapril + olinciguat 30 mg/kg/day in chow; read-out: average total plasma concentration of olinciguat at Week 10. As for the experimental part:
(§1) Lean (n=8, 370–420 g, 15 weeks) and obese (n=32, 500–630 g, 15 weeks) male ZSF1 rats were studied. Rats were treated with enalapril to reflect standard of care drug treatment for patients with diabetic kidney disease. Dose modeling based on allometric scaling relationships estimated that a 10 mg/day enalapril dose in humans (within usual dose range of 10–40 mg based on prescribing information) corresponds to 1 mg/kg/day in rats ([Nair and Jacob, 2016]). To measure hemodynamics in freely moving animals, ZSF1 obese rats were implanted with telemetry transmitters (HD-S10, Data Sciences International) at 9–10 weeks of age, as described above.
(§2) The study included a 10-day pretreatment period and a 10-week treatment period. There were five groups of rats in the study. The lean ZSF1 control group (lean control, n=8) and one obese group (obese control, n=8) were fed normal chow and drinking water throughout the 10-day pretreatment period and the 10-week treatment period. Three groups of obese rats were treated with enalapril in drinking water (equivalent to 3 mg/kg/day) throughout the 10-day pretreatment period and the 10-week treatment period. During the treatment period, these enalapril-treated obese rats were administered normal chow (ENP, n=8) or chow containing olinciguat targeting the dose of 10 mg/kg/day (ENP+OLI10, n=8) or 30 mg/kg/day (ENP+OLI30, n=8). Blood and 24-h urine samples were obtained from all animals at baseline (immediately prior to initiation of enalapril treatment), the end of the 10-day pretreatment period (Day 10) and at week 5 and week 10 of the treatment period. Plasma samples were obtained from all olinciguat-treated animals for measurement of olinciguat exposure at week 10. During week 9 of treatment, rats were fasted for 16 h overnight prior to determination of fasting blood glucose using the AlphaTRAK (Abbott) glucose monitoring system. Body weight was measured once every other week. At the end of the study, rats were anesthetized and perfused via the left ventricle with heparinized PBS (1 U/ml heparin) containing IBMX (1 mM). Organs were collected and weighed, and plasma was collected in EDTA tubes. For serum, blood was collected in serum separator tubes, maintained at room temperature for at least 30 min and centrifuged at 6,000 rpm for 10 min, and then stored at −80°C until analysis. Urine and serum samples were analyzed using the Randox Daytona Clinical Chemistry Analyzer (Randox, Kearneysville, WV) for urine protein, serum cholesterol and serum triglycerides. All measurements were performed in accordance with manufacturer's instructions.
(§3) For histology, one kidney from each rat was fixed in 10% formalin, then embedded in paraffin. Slides were prepared and stained with hematoxylin and eosin (H&E) and periodic-acid Schiff (PAS) for light microscopic analysis. Kidney sections were evaluated for the presence of glomerular pathology, tubular damage, interstitial inflammation, interstitial fibrosis, and vascular alterations. Severity-based scoring based on these evaluations was performed by a trained pathologist.
(§4) For the ZSF1 experiment, data are expressed as mean ± standard error of the mean (SEM).
(§5) In the ZSF1 study, change from baseline NT-proBNP, week 10 heart, kidney, and liver weight, urine volume, cholesterol, triglycerides, glucose, and renal histopathology sum score were analyzed by one-way ANOVA corrected for multiple comparisons using Tukey's method. Statistically significant differences vs the obese control and vs the ENP group are indicated in the results. MAP and UPE were analyzed by an ordinary two-way ANOVA with timepoint and treatment group as independent variables, followed by a Tukey's multiple comparisons test. Within each treatment group, significant differences vs baseline are indicated in the results. At week 10, statistically significant differences vs the obese control and vs the ENP control are also indicated in the results.

A further data set relates to obese ZSF1 rats. Described as above. It is filed as in vivo. On the procedure:
as §1, §2, §3, §4, §5

The subject of data set [2] is human subcutaneous resistance arteries. The data set is described as follows: Human vascular smooth muscle relaxation (U46619-precontracted arteries). Format: cell-based. The conditions noted are these: for EC50: Homo sapiens. On the procedure: The effect of olinciguat on relaxation of contracted human subcutaneous resistance arteries was determined according to methods described in ([Tobin et al., 2018]). In brief, human subcutaneous resistance arteries were obtained from three donors (females ages 27–51) undergoing elective surgeries. Arteries were mounted in a tissue bath and precontracted with the thromboxane mimetic, U46619 (100 nM). Only tissues containing functional endothelium, as determined by relaxation in response to acetylcholine (10 µM), were used. A cumulative concentration-response curve (0.1 to 10 µM) was generated for olinciguat, followed by addition of the NO donor sodium nitroprusside (100 μM). Percent relaxation at each olinciguat concentration was determined relative to the U46619-mediated contraction. Using GraphPad Prism v.7, a sigmoidal dose-response (variable slope) curve was fit with the bottom value constrained to zero to determine the EC50.

The nature of data set [3]: Rat post-myocardial infarction model. As to conditions: male, Sprague-Dawley, rat, plasma, oral; MI rats, 30 mg/kg/day in chow; read-out: olinciguat plasma concentration at week 8. It is filed as in vivo. On the procedure: (§6) Male Sprague-Dawley rats (n = 24, 270–330 g) were studied. MI was induced by permanent ligation of the left anterior descending (LAD) coronary artery. Briefly, after anesthesia with 5% isoflurane, rats were intubated and ventilated using a small animal ventilator (Model 683, Harvard Apparatus). Surgery was performed under sterile conditions. Briefly, the heart was exposed through left thoracotomy, the pericardium was incised, and the LAD coronary artery was ligated with 4-0 silk suture (Ethicon, Inc.). The lungs were inflated, and the chest wall was closed in three layers. Approximately 100 µl of 0.25% marcaine was applied directly to the edge of the skin incision. Long-acting buprenorphine (1 mg/kg/day, s.c.) was administered after the surgery for postoperative pain relief. Sham-operated rats underwent the same procedure without ligation of the LAD.
(§7) Treatment was initiated within 24 h following surgery. The Sham and MI control groups were maintained on chow for the entire 8-week treatment period. Rats in the MI + olinciguat group received olinciguat in chow at the targeted dose of 30 mg/kg/day for the entire 8-week treatment period. Ejection fraction (EF) was measured at week 8 by echocardiography using the long axis view of the left ventricle in B-mode.
(§8) In the post-MI study, data were analyzed by one-way ANOVA, followed by Dunnett's multiple comparison to the MI group.

Data set [4] concerns Sprague-Dawley rats with LAD ligation (post-MI). Description: Rat post-myocardial infarction model. As to conditions: 30 mg/kg/day, total plasma concentration x 1.0% free. It is filed as in vivo. On the procedure: as §6, §7, §8
On the set-up of data set [5]: method as in Mittleman et al., 2017. The conditions noted are these: healthy human subjects, ref Mittleman et al., 2017, cited from earlier work.
Where [6] appears, read: obese ZSF1, enalapril 3 mg/kg/day + olinciguat 30 mg/kg/day.

SMILES strings stand for the structures. “Also recorded” adds a separate entry of the source. Like-named read-outs stand apart in the source and are kept apart here. Marks after values point to notes of the source that are not given here.

For `NC(=O)[C@](O)(CNc1nc(-c2cc(-c3ccon3)n(Cc3ccccc3F)n2)ncc1F)C(F)(F)F` [olinciguat, (R)-3,3,3-trifluoro-2-(((5-fluoro-2-(1-(2-fluorobenzyl)-5-(isoxazol-3-yl)-1H-pyrazol-3-yl)pyrimidin-4-yl)amino)methyl)-2-hydroxypropanamide], the concentration at 10 weeks in data set [1] lay in the range of 510 to 610 nM. Also, in the data set on obese ZSF1 rats (setting [6]), the “cholesterol, percent lower than obese control” value was 41%; the “increase of proteinuria over 10 weeks” value was found to be 56%; the liver weight result is given as “↓ liver weight”; the “serum cholesterol at week 10” value is listed as “↓ cholesterol”. Further, in the data set on obese ZSF1 rats (setting [6]), the “serum triglycerides at week 10” value is “↓ triglycerides”; the total kidney weight entry was “did not develop renal hypertrophy; also recorded: ↓ kidney weight”; the “triglycerides, percent lower than obese control” value came to 52%. The fasting blood glucose entry in the data set with obese ZSF1 rats (obese ZSF1, enalapril 3 mg/kg/day + olinciguat 30 mg/kg/day, week 9) is on record as “↓glucose”. In addition, in the data set on obese ZSF1 rats (obese ZSF1, enalapril 3 mg/kg/day + olinciguat 30 mg/kg/day, obese control 1.42 ± 0.12), the “UPE at week 10” value is listed as “↓ proteinuria”. In addition, the “renal pathology sum score” value with obese ZSF1 rats (obese ZSF1, enalapril 3 mg/kg/day + olinciguat 30 mg/kg/day, p < 0.0001 vs obese control) is recorded as “significantly improved the composite renal histopathological score; also recorded: ↓ renal histopath”. In addition, in the data set on obese ZSF1 rats (obese ZSF1, olinciguat 30 mg/kg/day, total plasma concentration x 1.0% free), the “Olinciguat concentration (free)” value was 5.1–6.1 nM^e. Moreover, the “glucose, percent lower” value in the data set on obese ZSF1 rats (obese ZSF1, treatment with olinciguat (discussion)) amounted to 43%. Also, the “difference in MAP at end of treatment between enalapril+olinciguat 30 mg/kg and enalapril monotherapy groups” value in the data set on obese ZSF1 rats (obese ZSF1, week 10) is −8^d mmHg. Also, in data set [2] (10 μM olinciguat, relative to U46619-mediated contraction), the “mean relaxation at 10 μM” value is 94.8%. Further, in data set [2] (Table 2 summary, read-out: Human vascular relaxation EC50, olinciguat concentration (range = 95% CI)), the EC50 was 16 to 38 nM. In addition, in data set [2] (pre-contracted with U46619 100 nM, n=3 donors, 95% CI 16 to 38 nM, read-out: EC50, relaxation of pre-contracted arteries), the EC50 is 24.3 nM. In addition, the concentration at 8 weeks in data set [3] is 167 ± 11 nM. Further, the “Olinciguat concentration (free)” value in data set [4] is 1.6–1.8 nM^e. Besides, the terminal-phase half-life in data set [5] (repeat dosing with oral tablets) is on record as ~ 30 h. Moreover, the “renal clearance, percent of apparent total body clearance [CL/F]” value in data set [5] was not above 0.3%.

Source of the values: article PMC7156612, “Olinciguat, an Oral sGC Stimulator, Exhibits Diverse Pharmacology Across Preclinical Models of Cardiovascular, Metabolic, Renal, and Inflammatory Disease” (Frontiers in Pharmacology, 2020).
